{"source": "patent US20070141086A1", "about": "(priority 2003, published 2007)", "system": "virulent culture of M. haemolytica (Oklahoma State strain)", "assay_type": "in vivo, beef calves", "conditions": "conclusion over vaccination and challenge study in calves", "description": "For the vaccination challenge, 5 ml of a virulent culture of M. haemolytica (Oklahoma State strain) was administered by transthoracic injection into the right and left caudal lung lobes of each calf (10 ml of culture per calf) on Day 34 of the study. The inoculum contained approximately 5.6×10^8 CFU/ml.\nOne animal in T01 died immediately following challenge due to pulmonary hemorrhage as a result of challenge administration; thus its lung lesion data was excluded from the analysis. One animal in T03 was found dead on Day 37 as a result of severe pneumonia but was necropsied and its lung data was analyzed along with the data from the other animals. There were no significant differences between the treatment groups (P>0.05)."}
{"substance": "Tulathromycin", "values": [{"measurement": "Overall adjuvant function / immune response indicators (antibody production, attitude, respiratory effort, lung lesions)", "result": "appeared to effectively replace the adjuvant"}]}
